Results as given in US20120214830A1, “BIOLOGICAL MARKERS PREDICTIVE OF ANTI-CANCER RESPONSE TO INSULIN-LIKE GROWTH FACTOR-1 RECEPTOR KINASE INHIBITORS IN HEPATOCELLULAR CARCINOMA” (OSI Pharmaceuticals, LLC, priority 2011, published 2012).
Read-outs that look alike come from different tables or passages of the source.

Tests used:
tumor xenograft = conditions: cited from earlier work
JHH-1 = assay: Cell Titer-Glo proliferation assay, 72 h; assay type: cell-based; conditions: Homo sapiens, JHH1, JHH-1 cells
Protocol: (§1) Two sensitive epithelial cell lines Hep3B (A), JHH-7 (B), one insensitive epithelial cell line JHH-1(C) or one insensitive mesenchymal-like cell line HLF (D) were treated serial dilution of OSI-906 in the presence of Erlotinib for 72 hours, and sensitivity to treatment was measured by proliferation assays.
(§2) Cell lines: Twenty-one HCC cell lines were purchased from either ATCC (HepG2, Hep3B, PLC/PRF/5, SK-Hepl, SNU-182, SNU-387, SNU-398, SNU-423, SNU-449, SNU-475) or Health Science Research Resources Bank (Japan) (HUH-1, HUH-6, HUH-7, HLE, HLF, JHH-1, JHH-2, JHH-4, JHH-5, JHH-6, JHH-7). All the cell lines were maintained in media as described by the vendors. For growth inhibition assays, cells were plated and allowed to proliferate for 24 hours. After 24 hours, cells had reached approximately 15% confluency, at which time serial dilutions of OSI-906 were added and the cells grown for a further 72 hours. Cell viability was assayed using the Cell Titer-Glo reagent (Promega Corp., Madison, Wis.).
(§3) Proliferation Assay. Proliferation was assayed using Cell Titer Glo assays (Promega) and was determined 72 hours following dosing with OSI-906. The basis of the assay is a luminescent quantitation of ATP present in a cell culture plate well. In essence, the greater the number of viable cells in the well, the greater the level of ATP present. The assay utilizes a substrate that binds ATP to produce a luminescent signal, which can be read on a luminometer. Unless otherwise noted, the manufacturer's instructions were followed exactly. Briefly, on Day 1, cells were plated in 120 μl of 10% serum-containing growth media at a density of 4000 cells/well in a white polystyrene 96 well assay plate. On day 2, cells were treated with 15 μl of 10× concentration of the IGF-1R inhibitor (e.g. OSI-906) or DMSO alone for a final well volume of 150 μl. After 72 h incubation with the inhibitor, the cells were assayed. Results were calculated as a fraction of the DMSO controlled cells.

Hep 3B = assay: Cell Titer-Glo proliferation assay, 72 h; assay type: cell-based; conditions: Homo sapiens, Hep3B, Hep 3B cells
Protocol: as §1, §2, §3

HLF = assay: Cell Titer-Glo proliferation assay, 72 h; assay type: cell-based; conditions: Homo sapiens, HLF cells
Protocol: as §1, §2, §3

JHH-7 = assay: Cell Titer-Glo proliferation assay, 72 h; assay type: cell-based; conditions: Homo sapiens, JHH7, JHH-7 cells
Protocol: as §1, §2, §3

[1] = system: HCC cell lines (HepG2, Hep3B, HUH-1, HUH-6, HUH-7, JHH-5, JHH-7); assay: Cell-titer glo proliferation assay, summary for the seven sensitive HCC cell lines; assay type: cell-based, human
Protocol: as §2
Proliferation Assay. Proliferation was assayed using Cell Titer Glo assays (Promega) and was determined 72 hours following dosing with OSI-906. The basis of the assay is a luminescent quantitation of ATP present in a cell culture plate well. […] The assay utilizes a substrate that binds ATP to produce a luminescent signal, which can be read on a luminometer. […] Results were calculated as a fraction of the DMSO controlled cells.
To test cell sensitivity of HCC cells to the IGF-1R kinase inhibitor OSI-906, twenty-one HCC cell lines were treated with different concentration of OSI-906, and cell proliferation was measured by cell-titer glo assays (FIG. 1). […]

In the case of `C[C@]1(O)C[C@@H](c2nc(-c3ccc4ccc(-c5ccccc5)nc4c3)c3c(N)nccn32)C1` [OSI-906, cis-3-[8-amino-1-(2-phenyl-quinolin-7-yl)-imidazo[1,5-a]pyrazin-3-yl]-1-methyl-cyclobutanol], the “tumor growth inhibition (TGI)” value (tumor xenograft; xenografts of tumor cells with high sensitivity to OSI-906 in culture in vitro) is listed as “high pencentage tumor growth inhibition”, the “tumor growth inhibition (TGI)” value (tumor xenograft; xenografts of tumor cells with low sensitivity to OSI-906 in culture in vitro) is listed as “only a low pencentage tumor growth inhibition” and the inhibition at 5 µM (JHH-1; 5 μM OSI-906, 72 h) is listed as less than 40%. For the same molecule, the EC50 (JHH-1; 72 h OSI-906) was greater than 10000 nM, the inhibition at 5 µM (Hep 3B; 5 μM OSI-906, 72 h) was 67% and the EC50 (Hep 3B; 72 h OSI-906) was 350 nM. For the same molecule, the inhibition at 5 µM (HLF; 5 μM OSI-906, 72 h) was less than 40%, the EC50 (HLF; 72 h OSI-906) was greater than 10000 nM and the inhibition at 5 µM (JHH-7; 5 μM OSI-906, 72 h) was 70%. The EC50 (JHH-7; 72 h OSI-906) was 940 nM, the maximum inhibition [1] was greater than 40% and the EC50 ([1]; Homo sapiens) was less than 1000 nM.
